Experimental data as given in patent US9499550B2 (BRISTOL-MYERS SQUIBB COMPANY, priority 2012, dated 2016).
Where two headings read alike, the source gives them in different places.

Key:
[1] = system: HCV genotype 1a (H77 strain) replicon in HUH-7 cells; assay: HCV replicon luciferase reporter assay, genotype 1a; format: cell-based; conditions: Hepatitis C virus, Huh-7, 72 h, HCV genotype 1a replicon luciferase, 3 days incubation
How it was run: (§1)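 Replicon inhibition for both genotypes was measured as Renilla luciferase signal (EnduRen, 7.5 μM final, 2 h) after 3-day, 37° C exposure of replicon-bearing HUH-7 cells in 4% FCS DMEM, 0.5% DMSO. The 1b construct carries S1179I; the 1a H77 construct carries P1496L and S2204I. Twenty-point, 3-fold dilutions were fitted four-parametrically for EC50, and CC50 was taken from multiplexed Cell Titer-Blue.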

[2] = system: HCV genotype 1b (Con1) replicon in HUH-7 cells; assay: HCV replicon luciferase reporter assay, genotype 1b; format: cell-based; conditions: Hepatitis C virus, Huh-7, 72 h, HCV genotype 1b replicon luciferase, 3 days incubation
How it was run: as §1

| Compound | EC50 ([1]; read-out: LE_1a (EC50, range)) | EC50 ([2]; read-out: LE_1b (EC50, range)) | EC50 ([1]; read-out: LE_1a (EC50)) | EC50 ([2]; read-out: LE_1b (EC50)) |
| --- | --- | --- | --- | --- |
| CCOc1nnc(O[C@@H]2C[C@H]3C(=O)N[C@]4(C(=O)NS(=O)(=O)C5CC5)C[C@H]4/C=C\CC[C@H](C)C[C@@H](C)[C@H](NC(=O)NC(C)(C)C)C(=O)N3C2)c2ccccc12 [Compound 5040, (2R,6S,7R,9S,13aS,14aR,16aS,Z)-6-(3-(tert-butyl)ureido)-N-(cyclopropylsulfonyl)-2-((4-ethoxyphthalazin-1-yl)oxy)-7,9-dimethyl-5,16-dioxo-1,2,3,5,6,7,8,9,10,11,13a,14,14a,15,16,16a-hexadecahydrocyclopropa[e]pyrrolo[1,2-a][1,4]diazacyclopentadecine-14a-carboxamide] | > 87.4 nM | > 87.4 nM |  |  |
| CCOc1nnc(O[C@@H]2C[C@H]3C(=O)N[C@]4(C(=O)NS(=O)(=O)C5CC5)C[C@H]4/C=C\CC[C@@H](C)C[C@@H](C)[C@H](NC(=O)NC(C)(C)C)C(=O)N3C2)c2ccccc12 [Compound 5041, (2R,6S,7R,9R,13aS,14aR,16aS,Z)-6-(3-(tert-butyl)ureido)-N-(cyclopropylsulfonyl)-2-((4-ethoxyphthalazin-1-yl)oxy)-7,9-dimethyl-5,16-dioxo-1,2,3,5,6,7,8,9,10,11,13a,14,14a,15,16,16a-hexadecahydrocyclopropa[e]pyrrolo[1,2-a][1,4]diazacyclopentadecine-14a-carboxamide] | < 5.46 nM | 4.82 to 103 nM |  |  |
| CCOc1nnc(O[C@@H]2C[C@H]3C(=O)N[C@]4(C(=O)NS(=O)(=O)C5CC5)C[C@H]4/C=C\CC[C@H](C)C[C@@H](CC)[C@H](NC(=O)OC(C)(C)C)C(=O)N3C2)c2ccccc12 [Compound 5042, tert-butyl ((2R,6S,7R,9S,13aS,14aR,16aS,Z)-14a-((cyclopropylsulfonyl)carbamoyl)-2-((4-ethoxyphthalazin-1-yl)oxy)-7-ethyl-9-methyl-5,16-dioxo-1,2,3,5,6,7,8,9,10,11,13a,14,14a,15,16,16a-hexadecahydrocyclopropa[e]pyrrolo[1,2-a][1,4]diazacyclopentadecin-6-yl)carbamate] | 4.82 to 103 nM | 4.82 to 103 nM |  |  |
| CCOc1nnc(O[C@@H]2C[C@H]3C(=O)N[C@]4(C(=O)NS(=O)(=O)C5CC5)C[C@H]4/C=C\CC[C@@H](C)C[C@@H](CC)[C@H](NC(=O)OC(C)(C)C)C(=O)N3C2)c2ccccc12 [Compound 5043, tert-butyl ((2R,6S,7R,9R,13aS,14aR,16aS,Z)-14a-((cyclopropylsulfonyl)carbamoyl)-2-((4-ethoxyphthalazin-1-yl)oxy)-7-ethyl-9-methyl-5,16-dioxo-1,2,3,5,6,7,8,9,10,11,13a,14,14a,15,16,16a-hexadecahydrocyclopropa[e]pyrrolo[1,2-a][1,4]diazacyclopentadecin-6-yl)carbamate] | < 5.46 nM | < 5.46 nM |  |  |
| CCOc1nnc(O[C@@H]2C[C@H]3C(=O)N[C@]4(C(=O)NS(=O)(=O)C5CC5)C[C@H]4/C=C\CC[C@H](C)C[C@@H](CC)[C@H](NC(=O)OC(C)(C)C(F)(F)F)C(=O)N3C2)c2ccccc12 [Compound 5044, 1,1,1-trifluoro-2-methylpropan-2-yl((2R,6S,7R,9S,13aS,14aR,16aS,Z)-14a-((cyclopropylsulfonyl)carbamoyl)-2-((4-ethoxyphthalazin-1-yl)oxy)-7-ethyl-9-methyl-5,16-dioxo-1,2,3,5,6,7,8,9,10,11,13a,14,14a,15,16,16a-hexadecahydrocyclopropa[e]pyrrolo[1,2-a][1,4]diazacyclopentadecin-6-yl)carbamate] | 4.82 to 103 nM | 4.82 to 103 nM |  |  |
| CCOc1nnc(O[C@@H]2C[C@H]3C(=O)N[C@]4(C(=O)NS(=O)(=O)C5CC5)C[C@H]4/C=C\CC[C@@H](C)C[C@@H](CC)[C@H](NC(=O)OC(C)(C)C(F)(F)F)C(=O)N3C2)c2ccccc12 [Compound 5045, 1,1,1-trifluoro-2-methylpropan-2-yl((2R,6S,7R,9R,13aS,14aR,16aS,Z)-14a-((cyclopropylsulfonyl)carbamoyl)-2-((4-ethoxyphthalazin-1-yl)oxy)-7-ethyl-9-methyl-5,16-dioxo-1,2,3,5,6,7,8,9,10,11,13a,14,14a,15,16,16a-hexadecahydrocyclopropa[e]pyrrolo[1,2-a][1,4]diazacyclopentadecin-6-yl)carbamate] | < 5.46 nM | < 5.46 nM |  |  |
| CCOc1nnc(O[C@@H]2C[C@H]3C(=O)N[C@]4(C(=O)NS(=O)(=O)C5(C)CC5)C[C@H]4/C=C\CC[C@H](C)C[C@@H](CC)[C@H](NC(=O)OC(C)(C)C)C(=O)N3C2)c2ccccc12 [Compound 5046, tert-butyl ((2R,6S,7R,9S,13aS,14aR,16aS,Z)-2-((4-ethoxyphthalazin-1-yl)oxy)-7-ethyl-9-methyl-14a-(((1-methylcyclopropyl)sulfonyl)carbamoyl)-5,16-dioxo-1,2,3,5,6,7,8,9,10,11,13a,14,14a,15,16,16a-hexadecahydrocyclopropa[e]pyrrolo[1,2-a][1,4]diazacyclopentadecin-6-yl)carbamate] | 4.82 to 103 nM | < 5.46 nM |  |  |
| CCOc1nnc(O[C@@H]2C[C@H]3C(=O)N[C@]4(C(=O)NS(=O)(=O)C5(C)CC5)C[C@H]4/C=C\CC[C@@H](C)C[C@@H](CC)[C@H](NC(=O)OC(C)(C)C)C(=O)N3C2)c2ccccc12 [Compound 5047, tert-butyl ((2R,6S,7R,9R,13aS,14aR,16aS,Z)-2-((4-ethoxyphthalazin-1-yl)oxy)-7-ethyl-9-methyl-14a-(((1-methylcyclopropyl)sulfonyl)carbamoyl)-5,16-dioxo-1,2,3,5,6,7,8,9,10,11,13a,14,14a,15,16,16a-hexadecahydrocyclopropa[e]pyrrolo[1,2-a][1,4]diazacyclopentadecin-6-yl)carbamate] | < 5.46 nM | < 5.46 nM |  |  |
| CCOc1nnc(O[C@@H]2C[C@H]3C(=O)N[C@]4(C(=O)NS(=O)(=O)C5(C)CC5)C[C@H]4/C=C\CC[C@H](C)C[C@@H](CC)[C@H](NC(=O)OC(C)(C)C(F)(F)F)C(=O)N3C2)c2ccccc12 [Compound 5048, 1,1,1-trifluoro-2-methylpropan-2-yl((2R,6S,7R,9S,13aS,14aR,16aS,Z)-2-((4-ethoxyphthalazin-1-yl)oxy)-7-ethyl-9-methyl-14a-(((1-methylcyclopropyl)sulfonyl)carbamoyl)-5,16-dioxo-1,2,3,5,6,7,8,9,10,11,13a,14,14a,15,16,16a-hexadecahydrocyclopropa[e]pyrrolo[1,2-a][1,4]diazacyclopentadecin-6-yl)carbamate] | 4.82 to 103 nM | 4.82 to 103 nM |  |  |
| CCOc1nnc(O[C@@H]2C[C@H]3C(=O)N[C@]4(C(=O)NS(=O)(=O)C5(C)CC5)C[C@H]4/C=C\CC[C@@H](C)C[C@@H](CC)[C@H](NC(=O)OC(C)(C)C(F)(F)F)C(=O)N3C2)c2ccccc12 [Compound 5049, 1,1,1-trifluoro-2-methylpropan-2-yl((2R,6S,7R,9R,13aS,14aR,16aS,Z)-2-((4-ethoxyphthalazin-1-yl)oxy)-7-ethyl-9-methyl-14a-(((1-methylcyclopropyl)sulfonyl)carbamoyl)-5,16-dioxo-1,2,3,5,6,7,8,9,10,11,13a,14,14a,15,16,16a-hexadecahydrocyclopropa[e]pyrrolo[1,2-a][1,4]diazacyclopentadecin-6-yl)carbamate] | < 5.46 nM | < 5.46 nM |  |  |
| CCOc1nnc(O[C@@H]2C[C@H]3C(=O)N[C@]4(C(=O)NS(=O)(=O)C5(C)CC5)C[C@H]4/C=C\CC[C@H](C)C[C@@H](CC)[C@H](NC(=O)OC(C)(C)C(C)(F)F)C(=O)N3C2)c2ccccc12 [Compound 5050, 3,3-difluoro-2-methylbutan-2-yl((2R,6S,7R,9S,13aS,14aR,16aS,Z)-2-((4-ethoxyphthalazin-1-yl)oxy)-7-ethyl-9-methyl-14a-(((1-methylcyclopropyl)sulfonyl)carbamoyl)-5,16-dioxo-1,2,3,5,6,7,8,9,10,11,13a,14,14a,15,16,16a-hexadecahydrocyclopropa[e]pyrrolo[1,2-a][1,4]diazacyclopentadecin-6-yl)carbamate] | 4.82 to 103 nM | 4.82 to 103 nM |  |  |
| CCOc1nnc(O[C@@H]2C[C@H]3C(=O)N[C@]4(C(=O)NS(=O)(=O)C5(C)CC5)C[C@H]4/C=C\CC[C@@H](C)C[C@@H](CC)[C@H](NC(=O)OC(C)(C)C(C)(F)F)C(=O)N3C2)c2ccccc12 [Compound 5051, 3,3-difluoro-2-methylbutan-2-yl((2R,6S,7R,9R,13aS,14aR,16aS,Z)-2-((4-ethoxyphthalazin-1-yl)oxy)-7-ethyl-9-methyl-14a-(((1-methylcyclopropyl)sulfonyl)carbamoyl)-5,16-dioxo-1,2,3,5,6,7,8,9,10,11,13a,14,14a,15,16,16a-hexadecahydrocyclopropa[e]pyrrolo[1,2-a][1,4]diazacyclopentadecin-6-yl)carbamate] | < 5.46 nM | < 5.46 nM |  |  |
| CCn1nc(O[C@@H]2C[C@H]3C(=O)N[C@]4(C(=O)NS(=O)(=O)C5(C)CC5)C[C@H]4/C=C\CC[C@H](C)C[C@@H](C)[C@H](NC(=O)OC(C)(C)C(F)(F)F)C(=O)N3C2)c2ccccc2c1=O [Compound 5052, 1,1,1-trifluoro-2-methylpropan-2-yl((2R,6S,7R,9S,13aS,14aR,16aS,Z)-2-((3-ethyl-4-oxo-3,4-dihydrophthalazin-1-yl)oxy)-7,9-dimethyl-14a-(((1-methylcyclopropyl)sulfonyl)carbamoyl)-5,16-dioxo-1,2,3,5,6,7,8,9,10,11,13a,14,14a,15,16,16a-hexadecahydrocyclopropa[e]pyrrolo[1,2-a][1,4]diazacyclopentadecin-6-yl)carbamate] | > 87.4 nM | 4.82 to 103 nM | 330 nM | 76.2 nM |
